Peptide text beside a SMILES is read from it. * marks the point of attachment. Tos = Cc1ccc(S(=O)(=O)*)cc1
Experiments:
[1] = biological target: T1, Integrin alpha-4 (Homo sapiens, UniProt P13612); experiment: Displacement of VCAM1 from VLA4 receptor in human U937 cells; format: cell-based, U-937
T1 sequence (P13612 whole entry): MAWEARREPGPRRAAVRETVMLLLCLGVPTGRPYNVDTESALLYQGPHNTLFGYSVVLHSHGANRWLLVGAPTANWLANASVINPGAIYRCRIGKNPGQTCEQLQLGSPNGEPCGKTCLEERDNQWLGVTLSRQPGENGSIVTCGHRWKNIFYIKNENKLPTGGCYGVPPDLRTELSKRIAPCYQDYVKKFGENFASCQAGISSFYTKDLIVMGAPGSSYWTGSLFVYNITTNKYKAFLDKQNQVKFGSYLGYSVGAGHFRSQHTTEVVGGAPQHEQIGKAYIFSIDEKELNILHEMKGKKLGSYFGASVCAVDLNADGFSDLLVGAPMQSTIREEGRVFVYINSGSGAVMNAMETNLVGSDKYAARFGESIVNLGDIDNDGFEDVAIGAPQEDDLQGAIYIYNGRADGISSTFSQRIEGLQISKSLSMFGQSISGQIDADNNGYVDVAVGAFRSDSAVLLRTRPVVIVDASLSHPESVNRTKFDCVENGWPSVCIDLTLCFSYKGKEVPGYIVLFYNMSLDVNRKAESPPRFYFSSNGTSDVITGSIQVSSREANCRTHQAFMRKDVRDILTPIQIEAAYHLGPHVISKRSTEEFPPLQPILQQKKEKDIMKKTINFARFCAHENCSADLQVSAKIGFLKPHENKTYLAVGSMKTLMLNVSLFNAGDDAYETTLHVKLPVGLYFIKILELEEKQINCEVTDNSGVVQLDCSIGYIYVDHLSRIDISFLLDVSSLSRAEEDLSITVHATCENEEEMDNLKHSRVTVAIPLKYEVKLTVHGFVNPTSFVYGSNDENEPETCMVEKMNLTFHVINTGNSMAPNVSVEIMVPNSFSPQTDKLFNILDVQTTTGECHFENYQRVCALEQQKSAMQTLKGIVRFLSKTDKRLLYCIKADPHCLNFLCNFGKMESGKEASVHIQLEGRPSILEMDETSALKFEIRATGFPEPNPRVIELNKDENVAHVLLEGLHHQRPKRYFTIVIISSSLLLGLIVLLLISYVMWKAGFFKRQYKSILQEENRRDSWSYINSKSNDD

[2] = Metabolic stability in human liver microsome at 8 uM after 1 hr; format: ADME; details: liver microsomes, read-out: Stability
[3] = Oral bioavailability in rat; format: ADME, organism-based; details: in vivo

Row | IC50 [1] [nM] | remaining at 1 h, 8 µM [2] [%] | bioavailability [3] [%] | Structure (SMILES)
1 | 4400 |  |  | CCCCCCCNC(=O)[C@@H]1OCO[C@H]1C(=O)N[C@@H](Cc1ccc(OCc2c(Cl)cccc2Cl)cc1)C(=O)O
2 | 2700 |  |  | O=C(Nc1ccc(C[C@H](NC(=O)[C@@H]2OCO[C@H]2C(=O)Nc2ccccc2-c2ccccc2)C(=O)O)cc1)c1ccncc1
3 | 8300 |  |  | O=C(Nc1ccc(C[C@H](NC(=O)[C@@H]2OCO[C@H]2C(=O)Nc2ccccc2-c2ccccc2)C(=O)O)cc1)c1ccccn1
4 | 9500 |  |  | O=C(Nc1ccc(C[C@H](NC(=O)[C@@H]2OCO[C@H]2C(=O)Nc2ccccc2-c2ccccc2)C(=O)O)cc1)c1cccnc1
5 | 6300 |  |  | O=C(Nc1ccc(C[C@H](NC(=O)[C@@H]2OCO[C@H]2C(=O)Nc2ccccc2-c2ccccc2)C(=O)O)cc1)c1cc(Cl)nc(Cl)c1
6 | 100 |  |  | O=C(Nc1ccc(C[C@H](NC(=O)[C@@H]2OCO[C@H]2C(=O)Nc2ccccc2-c2ccccc2)C(=O)O)cc1)c1c(Cl)cccc1Cl
7 | 9000 |  |  | O=C(Nc1ccc(C[C@H](NC(=O)[C@@H]2OCO[C@H]2C(=O)Nc2ccccc2-c2ccccc2)C(=O)O)cc1)c1ccccc1
8 | 6300 |  |  | COc1ccccc1C(=O)Nc1ccc(C[C@H](NC(=O)[C@@H]2OCO[C@H]2C(=O)Nc2ccccc2-c2ccccc2)C(=O)O)cc1
9 | 7900 |  |  | O=C(O)[C@H](Cc1ccc(OCc2c(F)cccc2F)cc1)NC(=O)[C@@H]1OCO[C@H]1C(=O)Nc1ccccc1-c1ccccc1
10 | 8700 |  |  | O=C(O)[C@H](Cc1ccc(OCc2ccccc2Cl)cc1)NC(=O)[C@@H]1OCO[C@H]1C(=O)Nc1ccccc1-c1ccccc1
11 | 500 |  |  | O=C(O)[C@H](Cc1ccc(OCc2c(Cl)cccc2Cl)cc1)NC(=O)[C@@H]1OCO[C@H]1C(=O)Nc1ccccc1-c1ccccc1
12 | 1400 |  |  | O=C(O)[C@H](Cc1ccc(OCc2c(Cl)cccc2Cl)cc1)NC(=O)[C@@H]1OCO[C@H]1C(=O)NC1CCCCC1
13 | 1200 |  |  | CNC(=O)[C@@H]1OCO[C@H]1C(=O)N[C@@H](Cc1ccc(OCc2c(Cl)cccc2Cl)cc1)C(=O)O
14 | 2100 |  |  | CCNC(=O)[C@@H]1OCO[C@H]1C(=O)N[C@@H](Cc1ccc(OCc2c(Cl)cccc2Cl)cc1)C(=O)O
15 | 1500 |  |  | CCCCNC(=O)[C@@H]1OCO[C@H]1C(=O)N[C@@H](Cc1ccc(OCc2c(Cl)cccc2Cl)cc1)C(=O)O
16 | 1100 |  |  | CC(C)CCNC(=O)[C@@H]1OCO[C@H]1C(=O)N[C@@H](Cc1ccc(OCc2c(Cl)cccc2Cl)cc1)C(=O)O
17 | 1500 |  |  | CN(C)C(=O)[C@@H]1OCO[C@H]1C(=O)N[C@@H](Cc1ccc(OCc2c(Cl)cccc2Cl)cc1)C(=O)O
18 | 6600 |  |  | CC(C)NC(=O)[C@@H]1OCO[C@H]1C(=O)N[C@@H](Cc1ccc(OCc2c(Cl)cccc2Cl)cc1)C(=O)O
19 | 1200 |  |  | CC(C)(C)NC(=O)[C@@H]1OCO[C@H]1C(=O)N[C@@H](Cc1ccc(OCc2c(Cl)cccc2Cl)cc1)C(=O)O
20 | 300 | 72 |  | O=C(O)[C@H](Cc1ccc(OCc2c(Cl)cccc2Cl)cc1)NC(=O)[C@@H]1OCO[C@H]1C(=O)NC1CC1

Row | IC50 [1] [nM] | remaining at 1 h, 8 µM [2] [%] | bioavailability [3] [%] | Structure (SMILES)
21 | 600 |  |  | O=C(O)[C@H](Cc1ccc(OCc2c(Cl)cccc2Cl)cc1)NC(=O)[C@@H]1OCO[C@H]1C(=O)Nc1nc2ccccc2s1
22 | 700 |  |  | O=C(O)[C@H](Cc1ccc(OCc2c(Cl)cccc2Cl)cc1)NC(=O)[C@@H]1OCO[C@H]1C(=O)NCc1cccs1
23 | 600 |  |  | O=C(O)[C@H](Cc1ccc(OCc2c(Cl)cccc2Cl)cc1)NC(=O)[C@@H]1OCO[C@H]1C(=O)NCCc1c[nH]c2ccccc12
24 | 3000 |  |  | O=C(O)[C@H](Cc1ccc(OCc2c(Cl)cccc2Cl)cc1)NC(=O)[C@@H]1OCO[C@H]1C(=O)NCc1ccc2c(c1)OCO2
25 | 600 |  |  | O=C(O)[C@H](Cc1ccc(OCc2c(Cl)cccc2Cl)cc1)NC(=O)[C@@H]1OCO[C@H]1C(=O)Nc1ccccc1F
26 | 700 |  |  | O=C(O)[C@H](Cc1ccc(OCc2c(Cl)cccc2Cl)cc1)NC(=O)[C@@H]1OCO[C@H]1C(=O)Nc1ccccc1Cl
27 | 2800 |  |  | O=C(O)[C@H](Cc1ccc(OCc2c(Cl)cccc2Cl)cc1)NC(=O)[C@@H]1OCO[C@H]1C(=O)Nc1ccc(Cl)cc1
28 | 600 |  |  | COc1ccccc1NC(=O)[C@@H]1OCO[C@H]1C(=O)N[C@@H](Cc1ccc(OCc2c(Cl)cccc2Cl)cc1)C(=O)O
29 | 1500 |  |  | O=C(O)[C@H](Cc1ccc(OCc2c(Cl)cccc2Cl)cc1)NC(=O)[C@@H]1OCO[C@H]1C(=O)Nc1ccccc1
30 | 900 |  |  | O=C(O)[C@H](Cc1ccc(OCc2c(Cl)cccc2Cl)cc1)NC(=O)[C@@H]1OCO[C@H]1C(=O)Nc1ccccc1C(F)(F)F
31 | 200 | 52 |  | O=C(O)[C@H](Cc1ccc(OCc2c(Cl)cccc2Cl)cc1)NC(=O)[C@@H]1OCO[C@H]1C(=O)Nc1nccs1
32 | 1500 |  |  | Cc1nnc(NC(=O)[C@@H]2OCO[C@H]2C(=O)N[C@@H](Cc2ccc(OCc3c(Cl)cccc3Cl)cc2)C(=O)O)s1
33 | 500 |  |  | O=C(O)[C@H](Cc1ccc(OCc2c(Cl)cccc2Cl)cc1)NC(=O)[C@@H]1OCO[C@H]1C(=O)Nc1c(F)cccc1F
34 | 700 |  |  | O=C(O)[C@H](Cc1ccc(OCc2c(Cl)cccc2Cl)cc1)NC(=O)[C@@H]1OCO[C@H]1C(=O)Nc1c(Cl)cccc1Cl
35 | 400 |  |  | O=C(O)[C@H](Cc1ccc(OCc2c(Cl)cccc2Cl)cc1)NC(=O)[C@@H]1OCO[C@H]1C(=O)Nc1c(Cl)cncc1Cl
36 | 1000 |  |  | CC(C)(C)c1cc(NC(=O)[C@@H]2OCO[C@H]2C(=O)N[C@@H](Cc2ccc(OCc3c(Cl)cccc3Cl)cc2)C(=O)O)n(Cc2ccccc2)n1
37 | 2600 |  |  | Cc1ccc(-n2nc(C(C)(C)C)cc2NC(=O)[C@@H]2OCO[C@H]2C(=O)N[C@@H](Cc2ccc(OCc3c(Cl)cccc3Cl)cc2)C(=O)O)cc1
38 | 3400 |  |  | O=C(O)[C@H](Cc1ccc(OCc2c(Cl)cccc2Cl)cc1)NC(=O)[C@@H]1OCO[C@H]1C(=O)N1CCOCC1
39 |  |  | 10 | Cc1ccc(S(=O)(=O)N2CCC[C@H]2C(=O)N[C@@H](Cc2ccccc2)C(=O)O)cc1 (Tos-Pro-Phe-OH)
